Measurements reported in patent US20260209219A1, “SUBSTITUTED TETRAHYDROPYRROLO-PYRIDINONE COMPOUNDS AND THEIR USE IN TREATING MEDICAL CONDITIONS” (Karuna Therapeutics, Inc., priority 2022, published 2026).

Assays:
rM4 receptors = biological target: T1, rM4 receptors (Rattus norvegicus, UniProt P08485); test: Rat M4 PAM pERK assay; assay type: cell-based; conditions: CHO cells expressing rM4; with EC20 of acetylcholine (10 nM final)
T1 construct: expressed in transfected cells; host or cells: CHO cells
T1 sequence (P08485 1-478): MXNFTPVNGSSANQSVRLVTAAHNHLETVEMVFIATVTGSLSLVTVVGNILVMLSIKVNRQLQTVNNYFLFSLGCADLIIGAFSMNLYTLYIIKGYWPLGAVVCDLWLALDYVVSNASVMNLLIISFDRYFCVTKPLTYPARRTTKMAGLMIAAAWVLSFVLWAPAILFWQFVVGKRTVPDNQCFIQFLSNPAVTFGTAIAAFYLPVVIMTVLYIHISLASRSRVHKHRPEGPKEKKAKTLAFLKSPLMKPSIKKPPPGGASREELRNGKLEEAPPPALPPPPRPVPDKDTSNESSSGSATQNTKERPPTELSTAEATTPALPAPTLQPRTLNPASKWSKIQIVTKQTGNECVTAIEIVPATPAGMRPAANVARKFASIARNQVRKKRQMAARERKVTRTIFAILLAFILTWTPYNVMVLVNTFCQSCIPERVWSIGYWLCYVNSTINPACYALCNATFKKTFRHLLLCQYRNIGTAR
Protocol: Chinese hamster ovary (CHO) cells expressing either hM4 or rM4 receptors were frozen in assay ready vials (5×10^6 cells/vial) after bulking-up in culture. The day before an assay, vial(s) were thawed and cells seeded in 384 well white proxiplates at 1000/well for hM4 cells and at 2000/well for rM4 cells, in 10 μL of growth media (Hams/F12 with glutamax and 10% FCS) and incubated overnight at 37° C./5% CO2.
On the following morning, the growth media was removed by ‘flicking out’ over a bin, patting the inverted plate onto tissue, and then replacing with 10 μL of wash media (Hams/F12 with glutamax and 8 mM HEPES, NB: serum free). Then, the wash media was removed in the same way and replaced with 8 μL/well of the serum free media. Plates were then re-incubated for a further 4 hours at 37° C./5% CO2.
Compounds for testing were solubilized to 10 mM in DMSO and compound addition plates, consisting of ten-point concentration response curves (CRC) in duplicate points (10 μM top concentration, ½ log dilution series), were prepared by acoustic dispensing and the compound management group.
After the 4-hour incubation in serum free media, a 4 μL aliquot of the 3× compound solution containing an EC20 of acetylcholine (10 nM final concentration) was added to the cell plate using a 384 well plate to plate transfer. Then, the plate lid was replaced, and the cells incubated for 5 mins at 37° C./5% CO2. Following this final incubation, all cellular processes were stopped by the addition of 4 μL/well of lysis and blocking buffer and plates were incubated for 30 minutes at RT on an orbital shaker (gentle setting). Then, a final addition of 4 μL/well of antibody detection mix, containing both the Europium-Cryptate (donor) and d2 (acceptor) tagged detection components, was added followed by a further 2-hour incubation at RT, and then the plate was read using a TR-FRET (time resolved fluorescence resonance energy transfer) based protocol.

human M4 receptor = biological target: T2, human M4 receptor (Homo sapiens, UniProt P08173); test: M4 GTPγS PAM assay; assay type: biochemical; conditions: membranes of CHO-K1 cells stably expressing human M4; EC20 acetylcholine 40 nM
T2 construct: expressed in transfected cells; host or cells: CHO-K1 cells (membrane preparation)
T2 sequence (P08173 1-479): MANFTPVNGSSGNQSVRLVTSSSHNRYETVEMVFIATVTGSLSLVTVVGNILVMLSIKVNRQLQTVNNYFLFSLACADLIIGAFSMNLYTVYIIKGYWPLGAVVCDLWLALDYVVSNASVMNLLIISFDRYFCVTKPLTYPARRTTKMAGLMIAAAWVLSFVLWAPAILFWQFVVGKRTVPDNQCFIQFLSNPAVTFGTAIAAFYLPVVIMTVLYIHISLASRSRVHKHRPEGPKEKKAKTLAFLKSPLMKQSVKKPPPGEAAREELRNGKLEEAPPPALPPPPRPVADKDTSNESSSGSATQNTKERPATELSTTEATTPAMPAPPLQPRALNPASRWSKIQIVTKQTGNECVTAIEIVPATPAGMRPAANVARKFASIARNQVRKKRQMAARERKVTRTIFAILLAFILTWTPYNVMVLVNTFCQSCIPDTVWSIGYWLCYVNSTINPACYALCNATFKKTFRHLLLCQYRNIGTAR
Protocol: The M4 GTPγS PAM method was used. Membranes were prepared for GTPgS binding assays from CHO-K1 cells stably expressing human M4 receptor. Briefly, cells were grown in 5-layer cell culture flasks. Cells were washed with 50 mL of PBS and then dissociated with 0.05% trypsin. Dissociated cells were then collected by centrifugation at 650×g for 8 minutes at 4° C. Pellets were washed again in PBS by centrifugation and resuspended in 30 mL of 20 mM HEPES, 10 mM EDTA, pH 7.4. After sitting on ice for 30 min, membranes were collected by centrifugation at 50000×g for 15′ at 4° C., resuspended in 30 mL of 20 mM HEPES, 0.1 mM EDTA, pH 7.4 and collected again by centrifugation. Pellets were then washed twice by centrifugation in 30 mL of 20 mM HEPES, pH 7.4, and stored at −80° C. until the day of the assay. On the day of the assay, pellets were thawed on ice and resuspended in 1 mL of 20 mM HEPES, pH 7.4, 10 mM MgCl2, 100 mM NaCl using dounce homogenization. Membrane protein concentration is determined by BCA protein assay (Promega, Madison, WI) according to Promega guidelines.
On the day of the assay, serial dilutions of test PAM compounds were brought up in assay buffer (20 mM HEPES, 10 mM MgCl2, 100 mM NaCl) at 4× final assay concentration. […] of membrane homogenates (containing […] of membrane protein) were prepared in assay buffer supplemented with GDP at 4× final assay concentration (final assay concentration of GDP is 5 μM for M2 and 0.1 μM for M4) and dispensed into 96 well polypropylene, U-bottom Greiner plates. […] of vehicle or test PAM compound at 4× of final assay concentration diluted in the assay buffer were added to membrane and plates are incubated for 10-15 minutes at room temperature with gentle shaking. Then, […] of EC20 acetylcholine in assay buffer at 4× final assay concentration was added to assay plates (EC20 final assay concentrations was 40 nM for human M4).
Plates were then incubated, with shaking, for an additional 10-15 minutes. 25 mL of 0.4 nM ^35S-GTP (Perkin Elmer, Waltham, MA) in assay buffer was added to assay mixtures. The binding reaction is left on the shaker for 1 hour at room temperature. Membranes in assay reactions were then transferred to GF/C filter plates (Unifilter, Perkin Elmer) and washed three times using a FilterMate Harvester (Perkin Elmer) with cold assay buffer containing no GDP. Filter plates were then dried at 40° C. overnight followed by the addition of […] of Beta Plate Scintillation liquid. Plates are top and bottom sealed before being read on TopCount scintillation counter (Perkin Elmer, Waltham, MA).

Row | EC50 (rM4 receptors) [nM] | EC50 (human M4 receptor) [nM] | SMILES
1 | < 100 | < 100 | Cc1c2c(n(C)c(=O)c1F)CN(C(=O)CC1CC1c1ccc(C(F)(F)F)cc1)C2 (stereo not shown) [Compound I-26]
2 | 100 to 500 | < 100 | Cc1cc(=O)n(C)c2c1CN(C(=O)CC1CC1c1ccc(C(F)(F)F)cc1)C2 (single isomer, unassigned) [Compound I-7]
